From BindingDB's records for doi:10.1074/jbc.271.44.27217 (Yamanouchi Pharmaceutical, 1996)

Biological target: T1, Neuropeptide Y receptor type 2 (Oryctolagus cuniculus, UniProt B6VRS5)
T1 sequence (B6VRS5 whole entry): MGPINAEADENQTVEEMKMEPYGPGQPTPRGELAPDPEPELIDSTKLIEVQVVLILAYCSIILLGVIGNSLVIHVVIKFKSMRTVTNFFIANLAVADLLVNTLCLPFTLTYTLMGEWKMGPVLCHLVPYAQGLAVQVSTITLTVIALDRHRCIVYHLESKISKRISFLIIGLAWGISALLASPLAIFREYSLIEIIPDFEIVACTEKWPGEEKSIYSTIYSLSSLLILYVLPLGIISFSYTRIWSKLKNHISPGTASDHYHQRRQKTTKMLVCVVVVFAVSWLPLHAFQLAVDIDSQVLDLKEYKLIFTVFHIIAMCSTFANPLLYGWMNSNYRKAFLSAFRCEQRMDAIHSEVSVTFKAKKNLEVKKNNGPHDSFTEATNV

`CC[C@H](C)[C@H](NC(=O)[C@H](Cc1ccc(O)cc1)NC(=O)[C@H](CCCNC(=N)N)NC(=O)[C@H](CCCNC(=N)N)NC(=O)[C@H](CC(C)C)NC(=O)[C@H](CC(=O)O)NC(=O)[C@H](C)NC(=O)[C@H](C)NC(=O)[C@H](Cc1ccc(O)cc1)NC(=O)[C@H](CCC(N)=O)NC(=O)[C@H](C)NC(=O)[C@H](CCSC)NC(=O)[C@H](CCC(N)=O)NC(=O)[C@H](CCC(=O)O)NC(=O)[C@@H]1CCCN1C(=O)[C@@H](NC(=O)[C@H](C)NC(=O)[C@H](CC(N)=O)NC(=O)[C@H](CC(=O)O)NC(=O)CNC(=O)[C@@H]1CCCN1C(=O)[C@H](Cc1ccc(O)cc1)NC(=O)[C@@H](NC(=O)[C@@H]1CCCN1C(=O)[C@H](CCC(=O)O)NC(=O)[C@H](CC(C)C)NC(=O)[C@@H]1CCCN1C(=O)[C@H](C)N)C(C)C)[C@@H](C)O)C(=O)N[C@@H](CC(N)=O)C(=O)N[C@@H](CCSC)C(=O)N[C@@H](CC(C)C)C(=O)N[C@H](C(=O)N[C@@H](CCCNC(=N)N)C(=O)N1CCC[C@H]1C(=O)N[C@@H](CCCNC(=N)N)C(=O)N[C@@H](Cc1ccc(O)cc1)C(N)=O)[C@@H](C)O` [CAS_59763-91-6] gave a Ki of 340 nM.
